± gives the standard deviation of the averaged measurements.
Assays:
Experiment in all cases: drug sensitivity score (DSS) (DSS score); higher = more sensitive (stronger growth inhibition); extreme values may be limits of the assay
[1] = system: Ba/F3 P210-BCR-ABL1 RUNX1-/- (mouse)
Method in brief: (§1)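 A drug sensitivity score summarised each dose-response curve, with luminescence from CellTiter-Glo scaled between vehicle and positive-control wells. Values are the mean of two replicates. The cells were mouse Ba/F3 clones that were CRISPR/Cas9-edited at a target exon or were edited controls, exposed on pre-printed 384-well plates to a 528-compound library at five concentrations spanning a 10,000-fold range. Plates held 10,000 cells per well in RPMI with 10% FBS for 72 h at 37 °C and 5% CO2.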

[2] = system: Ba/F3 P210-BCR-ABL1 RUNX1-/mut (mouse)
Method in brief: as §1

[3] = system: Ba/F3 P210-BCR-ABL1 RUNX1wt/wt control (mouse)
Method in brief: as §1

Row | Structure (SMILES) | drug sensitivity score [1] | drug sensitivity score [2] | drug sensitivity score [3]
1 | CCN(CC)CCOc1ccc(C(=C(Cl)c2ccccc2)c2ccccc2)cc1 [Clomifene] | 6.5 ± 0.28 | 8 ± 1.3 | 6.35 ± 0.49
2 | O=C(c1ccc(F)c(F)c1Nc1ccc(I)cc1F)N1CC(O)([C@@H]2CCCCN2)C1 [Cobimetinib] | 9.05 ± 0.78 | 4.6 ± 1.8 | 0
3 | COc1c(OCCCN2CCOCC2)ccc2c1N=C(NC(=O)c1cnc(N)nc1)N1CCN=C21 [Copanlisib] | 8.65 ± 1.5 | 6.1 ± 3.4 | 1.4 ± 0.99
4 | CC1(COc2ccc3c(c2)ncn3-c2ccc3cccc(N4CCC(N)CC4)c3n2)COC1 [Crenolanib] | 12.8 ± 0.49 | 10.9 ± 1.5 | 6.25 ± 0.49
5 | Nc1ccn([C@@H]2O[C@H](CO)[C@@H](O)[C@@H]2O)c(=O)n1 [Cytarabine] | 12.25 ± 0.071 | 8.25 ± 4 | 6.25 ± 0.071
6 | CC(C)(C)c1nc(-c2cccc(NS(=O)(=O)c3c(F)cccc3F)c2F)c(-c2ccnc(N)n2)s1 [Dabrafenib] | 2.6 ± 0.85 | 0.05 ± 0.071 | 2.2 ± 0.42
7 | COc1cc2ncnc(Nc3ccc(F)c(Cl)c3)c2cc1NC(=O)/C=C/CN1CCCCC1 [Dacomitinib] | 1.05 ± 1.5 | 1.8 ± 2.3 | 0.25 ± 0.35
8 | Cn1c(=O)n(-c2ccc(C(C)(C)C#N)cc2)c2c3cc(-c4cnc5ccccc5c4)ccc3ncc21 [Dactolisib] | 16.9 ± 0.42 | 18.3 ± 0.28 | 14.4 ± 0.35
9 | O=C(/C=C/c1cccnc1)NCCCCC1CCN(C(=O)c2ccccc2)CC1 [Daporinad] | 19.4 ± 0.35 | 20.5 ± 4.7 | 15.9 ± 0.71
10 | CCN(CC)CCN(Cc1ccc(-c2ccc(C(F)(F)F)cc2)cc1)C(=O)Cn1c(SCc2ccc(F)cc2)nc(=O)c2c1CCC2 [Darapladib] | 1.9 ± 0.14 | 2.65 ± 3.2 | 0
11 | CC[C@@](C)(Nc1ccnc(-c2c[nH]c3ncccc23)n1)C(=O)NCC(F)(F)F [Decernotinib] | 0.5 ± 0.28 | 0 | 0.55 ± 0.21
12 | CC(=O)N(O)CCCCCNC(=O)CCC(=O)N(O)CCCCCNC(=O)CCC(=O)N(O)CCCCCN [Deferoxamine] | 6.9 ± 0.71 | 6.6 ± 1.4 | 0.9 ± 0.99
13 | C[C@H]1O[C@@H](O[C@H]2[C@@H](O)C[C@H](O[C@H]3[C@@H](O)C[C@H](O[C@H]4CC[C@@]5(C)[C@H](CC[C@@H]6[C@@H]5C[C@@H](O)[C@]5(C)[C@@H](C7=CC(=O)OC7)CC[C@]65O)C4)O[C@@H]3C)O[C@@H]2C)C[C@H](O)[C@@H]1O [Digoxin] | 0 | 0.05 ± 0.071 | 0
14 | CCc1cnn2c(NCc3ccc[n+]([O-])c3)cc(N3CCCC[C@H]3CCO)nc12 [Dinaciclib] | 19.6 ± 2.3 | 19.9 ± 0.35 | 18.6 ± 0.78
15 | Cc1ccc(-n2nc(C(C)(C)C)cc2NC(=O)Nc2ccc(OCCN3CCOCC3)c3ccccc23)cc1 [Doramapimod] | 3.9 ± 0.57 | 2.85 ± 1.5 | 0
16 | C[C@H](Nc1ncnc2nc[nH]c12)c1cc2cccc(Cl)c2c(=O)n1-c1ccccc1 [Duvelisib] | 2.6 ± 0.99 | 2.35 ± 3.3 | 0
17 | Cc1ccc(NS(=O)(=O)c2cccc(C#N)c2)c2[nH]cc(C#N)c12 [E7820] | 2 ± 0.99 | 5.45 ± 2 | 0.35 ± 0.21
18 | Cc1cc(Nc2cc(N3CCN(C)CC3)nc(/C=C/c3ccccc3)n2)n[nH]1 [ENMD-2076] | 9.4 ± 0.28 | 8.45 ± 0.35 | 5.5 ± 0.85
19 | Cc1cc(C)c(CNC(=O)c2cc(-c3ccc(CN4CCOCC4)cc3)cc3c2cnn3C2CCCC2)c(=O)[nH]1 [EPZ-5687] | 0.5 ± 0.71 | 0.9 ± 1.3 | 0
20 | NC(=O)/C(=C/n1cnc(-c2cc(C(F)(F)F)cc(C(F)(F)F)c2)n1)c1cncnc1 [Eltanexor] | 27.8 ± 0.14 | 27.2 ± 0.35 | 19.8 ± 0.99
21 | CC(C)(O)CNc1nc(Nc2ccnc(C(F)(F)F)c2)nc(-c2cccc(C(F)(F)F)n2)n1 [Enasidenib] | 0.4 ± 0.14 | 0.55 ± 0.78 | 0
22 | COC(=O)N[C@@H](C)CNc1nccc(-c2cn(C(C)C)nc2-c2cc(Cl)cc(NS(C)(=O)=O)c2F)n1 [Encorafenib] | 1.35 ± 0.071 | 2.15 ± 0.64 | 0.05 ± 0.071
23 | C[C@@H]1CN(C(=O)c2ccc(NC(=O)c3cc(O[C@H](C)c4c(Cl)ccc(F)c4Cl)c(N)nn3)cc2)C[C@H](C)N1 [Ensartinib] | 2.15 ± 0.92 | 0.2 ± 0.28 | 0

Row | Structure (SMILES) | drug sensitivity score [1] | drug sensitivity score [2] | drug sensitivity score [3]
24 | c1cn2cc(-c3ccc4cn[nH]c4c3)nc(Nc3ccc(N4CCOCC4)cc3)c2n1 [Entospletinib] | 1.95 ± 1.3 | 1.35 ± 1.9 | 0
25 | CN1CCN(c2ccc(C(=O)Nc3n[nH]c4ccc(Cc5cc(F)cc(F)c5)cc34)c(NC3CCOCC3)c2)CC1 [Entrectinib] | 0.25 ± 0.35 | 0.65 ± 0.92 | 0
26 | CNC(=O)c1ccc(N2C(=S)N(c3ccc(C#N)c(C(F)(F)F)c3)C(=O)C2(C)C)cc1F [Enzalutamide] | 1.15 ± 1.6 | 1.05 ± 1.5 | 0.3 ± 0.14
27 | NS(=O)(=O)NCCNc1nonc1/C(=N/O)Nc1ccc(F)c(Br)c1 [Epacadostat] | 1.05 ± 1.2 | 0.7 ± 0.99 | 0
28 | COc1cccc2c1C(=O)c1c(O)c3c(c(O)c1C2=O)C[C@@](O)(C(=O)CO)C[C@@H]3O[C@H]1C[C@H](N)[C@@H](O)[C@H](C)O1 [Epirubicin] | 24.9 ± 0.35 | 18.6 ± 3.5 | 13.1 ± 0.21
29 | CCOc1ccccc1-n1c(C(C)N2CCN(C(=O)COc3ccc(Cl)cc3)CC2)nc2ccccc2c1=O (stereo not given) [Erastin] | 11.2 ± 1.1 | 8.45 ± 5.9 | 0
30 | COc1cc(OC)cc(N(CCNC(C)C)c2ccc3ncc(-c4cnn(C)c4)nc3c2)c1 [Erdafitinib] | 1.5 ± 0.14 | 0 | 0
31 | C=C1C[C@@H]2CC[C@@]34C[C@H]5O[C@H]6[C@@H](O3)[C@H]3O[C@H](CC[C@@H]3O[C@H]6[C@H]5O4)CC(=O)C[C@@H]3[C@@H](OC)[C@@H](C[C@H](O)CN)O[C@H]3C[C@H]3O[C@@H](CC[C@@H]1O2)C[C@@H](C)C3=C [Eribulin] | 25.9 ± 1.2 | 24.6 ± 0.85 | 17.4 ± 0.14
32 | CCn1c(=O)c(-c2ccc(Cl)cc2Cl)cc2cnc(Nc3ccc(N4CCNCC4)c(F)c3)nc21 [FRAX486] | 23.2 ± 1.2 | 16.4 ± 0.42 | 8.95 ± 0.64
33 | Cc1cnc(Nc2ccc(OCCN3CCCC3)cc2)nc1Nc1cccc(S(=O)(=O)NC(C)(C)C)c1 [Fedratinib] | 11.7 ± 2 | 10.4 ± 2.7 | 5.8
34 | CON(C)C(=O)N1N=C(c2cc(F)ccc2F)S[C@@]1(CCCN)c1ccccc1 [Filanesib] | 19.6 ± 2.2 | 14.95 ± 0.071 | 7.85 ± 0.35
35 | O=C(Nc1nc2cccc(-c3ccc(CN4CCS(=O)(=O)CC4)cc3)n2n1)C1CC1 [Filgotinib] | 1.5 ± 1.7 | 1.8 ± 2.5 | 0
36 | COc1cc(Nc2ncc(F)c(Nc3ccc4c(n3)N(COP(=O)(O)O)C(=O)C(C)(C)O4)n2)cc(OC)c1OC [Fostamatinib] | 1.4 ± 0.14 | 0.45 ± 0.64 | 0.45 ± 0.49
37 | CC1(C)OCCn2c1nc1c(N3CCOCC3)nc(-c3cnc(N)nc3)nc12 [GDC-0084] | 9.3 ± 0.14 | 10.3 ± 0.85 | 4.8
38 | O=C(NOCCO)c1ccc2cncn2c1Nc1ccc(I)cc1F [GDC-0623] | 10.8 ± 8.1 | 3.7 ± 3.7 | 0.55 ± 0.78
39 | C[C@H]1CN(C2COC2)CCN1c1ccc(Nc2cc(-c3ccnc(N4CCn5c(cc6c5CC(C)(C)C6)C4=O)c3CO)cn(C)c2=O)nc1 [GDC-0853] | 0 | 0 | 0
40 | O[C@H](C[C@H]1c2c(F)cccc2-c2cncn21)[C@H]1CC[C@H](O)CC1 [GDC-0919] | 0 | 0.05 ± 0.071 | 1.2 ± 0.28
41 | CNc1nc(Nc2cn(C(C)(C)C#N)nc2C)ncc1C(F)(F)F [GNE-0877] | 0 | 0 | 0
42 | CCNc1nc(Nc2cc(F)c(C(=O)N3CCOCC3)cc2OC)ncc1C(F)(F)F [GNE-7915] | 0 | 0 | 0
43 | CCCc1cc(C)[nH]c(=O)c1CNC(=O)c1cc(-c2ccnc(N3CCN(C)CC3)c2)cc2c1cnn2C(C)C [GSK343] | 0.75 ± 0.78 | 1.05 ± 1.5 | 0
44 | CCCOc1ccn2c(C(C)=O)cc(-c3ccccc3S(C)(=O)=O)c2c1 [GSK2801] | 0.1 ± 0.14 | 2.3 ± 3.2 | 0
45 | CCOC(=O)CCNc1cc(N2CCc3ccccc3CC2)nc(-c2ccccn2)n1 [GSK-J4] | 5.1 ± 4.8 | 4.5 ± 3.8 | 2.45 ± 0.78

Source: the supplement of paper PMC8024199
